Source: PMC4793533 (BMC obesity, 2016)

Tests used:
[1] = Recovery of radioactivity in excreta (urine, faeces, cage wash), liver and gastrointestinal tract contents; assay type: in vivo, female Göttingen minipigs
Procedure: The study consisted of two treatment groups, each consisting of six female Göttingen minipigs. Group A served as the untreated group (control) and group B was pre-treated with polyglucosamine as follows; the animals of group B were dosed with 2 tablets of 500 mg formoline […] (1 g formoline […] in total) followed by approximately 10 ml of water via a syringe. The 2 tablets of polyglucosamine were inserted into 2 gelatine capsules. The minipigs were trained to eat these capsules. Thereafter, animals of both groups were allowed to drink water ad libitum. […] The dosing capsules were prepared the day before the dose administration based on the bodyweight determined shortly before dosing and stored under nitrogen and protected from light at 2-10 °C. Immediately following dosing all animals received approximately 10 ml of water via a syringe. After 15 min, animals were allowed to drink water and eat their morning meal. […] The animals were housed in stainless steel metabolism cages under test conditions, 48 h prior to the experimental start date (dosing). Urine and faeces was collected at ambient temperature at 24 h time intervals, starting at 2 days prior to dosing and ending at 144 h post-dose. At each collection period, the cage was rinsed with 100 mL demi-water. […] The cannula was rinsed with physiological saline after each blood sampling. After the last blood sampling of the day the cannula was filled with 3 % poly vinyl pyrrolidone (PVP) and heparin, and closed with a lid. Subsamples of whole blood were collected for analysis and the remaining blood was used for preparation of plasma by centrifugation for 10 min at 2000 g. At the end of the experiment, the cages were rinsed thoroughly with water/ethanol/Triton X-100 (100/100/1; v/v/v). The minipigs were intravenously anaesthetized via the catheter with 60 mg sodium-pentobarbital per kg bodyweight. Next, the animals were sacrificed by exsanguination from the carotid artery. At sacrifice, the complete liver and contents of the gastrointestinal tract were collected. Prior to analysis of radioactivity, the faeces, liver and contents of the gastrointestinal tract were homogenized using an ultrathurrax. Radioactivity in all samples was determined by liquid scintillation counting on a Tri-Carb 3100TR liquid scintillation counter using QuantaSmartTM software. All counts were converted to DPM using tSIE/AEC (transformed Spectral Index of external standards coupled to Automatic Efficiency Correction). Radioactivity in faeces, blood and liver tissue was determined by combustion analysis using a Packard Sample Oxidizer System 307. The CO2 formed was mixed with CarbosorbTM and PermafluorTM and measured by LSC.

[2] = Pharmacokinetics of radioactivity in plasma and blood after a single oral dose of [9-14C]-oleic acid, with or without formoline L112 pre-treatment; assay type: in vivo, female Göttingen minipigs; settings: untreated minipigs (group A), single oral 10 mg/kg [9-14C]-oleic acid
Procedure: The study consisted of two treatment groups, each consisting of six female Göttingen minipigs. Group A served as the untreated group (control) and group B was pre-treated with polyglucosamine as follows; the animals of group B were dosed with 2 tablets of 500 mg formoline […] (1 g formoline […] in total) followed by approximately 10 ml of water via a syringe. The 2 tablets of polyglucosamine were inserted into 2 gelatine capsules. The minipigs were trained to eat these capsules. Thereafter, animals of both groups were allowed to drink water ad libitum. […] One animal of the control group A was inadequately dosed and was omitted from the experiment. The dosing capsules were prepared the day before the dose administration based on the bodyweight determined shortly before dosing and stored under nitrogen and protected from light at 2-10 °C. Immediately following dosing all animals received approximately 10 ml of water via a syringe. After 15 min, animals were allowed to drink water and eat their morning meal. This meal was eaten within a few minutes. The animals were housed in stainless steel metabolism cages under test conditions, 48 h prior to the experimental start date (dosing). Urine and faeces was collected at ambient temperature at 24 h time intervals, starting at 2 days prior to dosing and ending at 144 h post-dose. At each collection period, the cage was rinsed with 100 mL demi-water. […] The cannula was rinsed with physiological saline after each blood sampling. After the last blood sampling of the day the cannula was filled with 3 % poly vinyl pyrrolidone (PVP) and heparin, and closed with a lid. Subsamples of whole blood were collected for analysis and the remaining blood was used for preparation of plasma by centrifugation for 10 min at 2000 g. At the end of the experiment, the cages were rinsed thoroughly with water/ethanol/Triton X-100 (100/100/1; v/v/v). The minipigs were intravenously anaesthetized via the catheter with 60 mg sodium-pentobarbital per kg bodyweight. Next, the animals were sacrificed by exsanguination from the carotid artery. At sacrifice, the complete liver and contents of the gastrointestinal tract were collected. Prior to analysis of radioactivity, the faeces, liver and contents of the gastrointestinal tract were homogenized using an ultrathurrax. Radioactivity in all samples was determined by liquid scintillation counting on a Tri-Carb 3100TR liquid scintillation counter using QuantaSmartTM software. All counts were converted to DPM using tSIE/AEC (transformed Spectral Index of external standards coupled to Automatic Efficiency Correction). Radioactivity in faeces, blood and liver tissue was determined by combustion analysis using a Packard Sample Oxidizer System 307. The CO2 formed was mixed with CarbosorbTM and PermafluorTM and measured by LSC. Kinetic analysis of radioactivity (blood/plasma) was performed using WinNonlin® 6.3 applying non-compartmental model analysis. The following kinetic parameters were calculated where the data allow: Cmax, Tmax, half-life (t1/2), the volume of distribution, clearance, the Area under the concentration-time curve (AUC) (or AUC0-n, AUC0-∞) and the Mean Residence Time (MRT). Statistical analysis was assessed by using Mann-Whitney U-test (non-parametric test) using the Brightstat.

[3] = cited from earlier work
[4] = untreated minipigs, not a mass-balance study
[5] = up to 144 h post-dose, group A untreated, mean ± SD

For `CCCCCCCC/C=[14CH]\CCCCCCCC(=O)O` [[9-^14C]-oleic acid], the “Recovery of radioactivity in urine” value ([1]; 0–24 h, group A untreated, mean ± SD) was 0.79 ± 0.05 % of the applied dose, the “Recovery of radioactivity in urine” value ([1]; 24–48 h, group A untreated, mean ± SD) was 0.28 ± 0.10 % of the applied dose and the “Recovery of radioactivity in urine” value ([1]; 48–72 h, group A untreated, mean ± SD) was 0.09 ± 0.08 % of the applied dose. For the same compound, the “Recovery of radioactivity in urine” value ([1]; 72–96 h, group A untreated, mean ± SD) was 0.08 ± 0.05 % of the applied dose, the “Recovery of radioactivity in urine” value ([1]; 96–120 h, group A untreated, mean ± SD) was 0.05 ± 0.03 % of the applied dose and the “Recovery of radioactivity in urine” value ([1]; 120–144 h, group A untreated, mean ± SD) was 0.03 ± 0.00 % of the applied dose. For the same compound, the “Recovery of radioactivity in urine” value ([1]; -24–0 h (pre-dose), group A untreated, mean ± SD) was 0.01 ± 0.00 % of the applied dose, the “Recovery of radioactivity in urine” value ([1]; -48–24 h (pre-dose), group A untreated, mean ± SD) was 0.00 ± 0.01 % of the applied dose and the “Recovery of radioactivity in Cagewash” value ([1]; group A untreated, mean ± SD) was 0.07 ± 0.07 % of the applied dose. The “Recovery of radioactivity in GI-tract contents at sacrifice (144 h post-dose)” value ([1]; group A untreated, mean ± SD) was 0.08 ± 0.04 % of the applied dose, the “Recovery of radioactivity in Liver at sacrifice (144 h post-dose)” value ([1]; group A untreated, mean ± SD) was 0.37 ± 0.07 % of the applied dose and the “Total excreted (sum urine, faeces, cagewash)” value ([1]; group A untreated, mean ± SD) was 7.90 ± 3.13 % of the applied dose. The “Overall recovery of the dosed amount of radioactivity (based on the AUC0-12h)” value [1, 4] was 34.7%, the “Overall recovery of the dosed amount of radioactivity (based on the Cmax)” value [1, 4] was 13.9% and the “Recovery of radioactivity in faeces, Total” value [1, 5] was 6.51 ± 2.88 % of the applied dose. The “Recovery of radioactivity in urine, Total” value [1, 5] was 1.33 ± 0.20 % of the applied dose, the “AUC(0-12h)” value ([2]; blood) was 40.0 ± 4.8 µg·h/g and the “AUC(0-24h)” value ([2]; blood) was 61.7 ± 13.1 µg·h/g. For the same compound, the “AUC(0-48h)” value ([2]; blood) was 88.3 ± 19.0 µg·h/g, the “AUC(0-60h)” value ([2]; blood) was 97.2 ± 20.6 µg·h/g and the “AUC(0-72h)” value ([2]; blood) was 105 ± 22 µg·h/g. For the same compound, the “AUCall(0-144h)” value ([2]; blood) was 139 ± 25 µg·h/g, the Cl ([2]; blood) was 48.4 ± 7.9 g/h/kg and the “Cmax ([9-14C]-oleic acid and/or its metabolites)” value ([2]; blood) was 8.5 ± 2.2 µg/g. The MRTlast ([2]; blood) was 43.6 ± 3.1 h, the “Tmax ([9-14C]-oleic acid and/or its metabolites)” value ([2]; blood) was 4 ± 3 h and the Vz ([2]; blood) was 8860 ± 1848 g/kg. For the same compound, the “AUC(0-12h)” value ([2]; plasma) was 65.6 ± 6.0 µg·h/g, the “AUC(0-24h)” value ([2]; plasma) was 98.4 ± 17.2 µg·h/g and the “AUC(0-48h)” value ([2]; plasma) was 136 ± 28 µg·h/g. The “AUC(0-60h)” value ([2]; plasma) was 148 ± 31 µg·h/g, the “AUC(0-72h)” value ([2]; plasma) was 157 ± 32 µg·h/g and the “AUCall(0-144h)” value ([2]; plasma) was 190 ± 38 µg·h/g. The Cl ([2]; plasma) was 40.7 ± 5.5 g/h/kg, the “Cmax ([9-14C]-oleic acid and/or its metabolites)” value ([2]; plasma) was 14.1 ± 3.6 µg/g and the MRTlast ([2]; plasma) was 35.9 ± 1.8 h. For the same compound, the “Tmax ([9-14C]-oleic acid and/or its metabolites)” value ([2]; plasma) was 4 ± 3 h and the Vz ([2]; plasma) was 7008 ± 2962 g/kg.

In the case of `CCCCCCCC/C=C\CCCCCCCC(=O)O` [oleic acid], the “Excreted in the faeces” value ([3]; 31 test persons with normal fat assimilation, oral doses, radioactively labelled, after 6 days) is listed as “less than 10%” and the “Absorption after oral administration” value ([3]; untreated subjects) is listed as “absorbed practically completely”.
